According to article PMC9537177, “A VEGFR targeting peptide-drug conjugate (PDC) suppresses tumor angiogenesis in a TACE model for hepatocellular carcinoma therapy” (Cell Death Discovery, 2022):
“Also recorded” adds a separate entry of the source. Square brackets hold non-standard residues; d marks the D form. Peptide text beside a SMILES is read from it. Aib = CC(C)(N)C(=O)O; Ahx = NCCCCCC(=O)O

Experiments:
[1] = tested on: Huh 7 cells; conditions: 10 μM, 24 h, Annexin V-PI FACS
Method: Viable cells, early apoptotic cells, necrotic cells, late apoptotic cells were represented by Q4, Q3, Q2 and Q1 respectively.
(§1) The apoptosis assay was performed according to the manufacturer’s instructions using an Annexin V: Fluorescein Isothiocyanate (FITC) Apoptosis Detection Kit I (BD Pharmingen™). Briefly, Huh 7 or HUVEC cells were seeded in a 12-well plate and allowed to grow for 24 h in medium with 10% FBS. Then, the cells were treated with the different peptides in medium with 5% FBS for 24 h’ incubation. The cells were harvested with 0.25% trypsin/EDTA, washed twice with PBS and suspended in 1 × binding buffer. The suspended cells were treated with FITC-labeled Annexin V and propidium iodide (PI) as the protocol indicated and then analyzed by flow cytometry to determine the apoptotic cells. The cells with positive fluorescence intensity signals for both FITC and PI were used for the apoptotic cell count.

[2] = tested on: VX2 liver tumor; test: VX2 rabbit liver tumor model with TAE/TACE: tumor growth, necrosis, apoptosis, proliferation, angiogenesis; assay type: in vivo, New Zealand white rabbits
Method: New Zealand white rabbits (2.5-3 kg) were purchased from the Laboratory Animal Center of Tongji Medical College of Huazhong University of Science and Technology (Wuhan, China). All the animal experimental procedures were performed in accordance with the National Institutes of Health Guidelines for the Care and Use of Laboratory Animals and the protocol was approved by the Ethics Committee of Tongji Medical College, Huazhong University of Science and Technology. Blinding was not possible in most animal experiments. The rabbit VX2 liver tumor model was established according to the method reported by Qian K et al.. […] The acquisition parameters of the sequence are as follows: […], TR 2750 ms, TE 65 ms, the field of view 120 mm × 120 mm, Slice thickness 3 mm in the transverse plane, matrix 152 × 152. The multi-vane technique was used to reduce artifacts and improve image quality, acquisition time 3 min […]; […] Seven days after TACE procedure, tumor size was evaluated again by MR scan and the tumor volume was calculated by formula: V = a * b^2/2 (a, long diameter; b, short diameter). And tumor growth rate was calculated by formula: […] Finally, the VX2 rabbits were sacrificed and the tumor tissues were harvested for biochemical analysis and histopathological examination. […] The IHC staining procedures were performed as previously described. Briefly, the sections were blocked in 3% H2O2 for 25 min and then incubated with goat serum for 15 min. Subsequently, the sections were first washed and incubated with anti-VEGF (1:200, Abcam, USA), and anti-CD31 (1:20; Abcam, USA) overnight at 4 °C, and then incubated with second antibody (Abcam, USA) at 37 °C for 50 min. Next, the sections were stained with 3, 3'-diaminobenzidine (DAB, Service bio, Wuhan […] Biotechnology Co., Ltd., China) for 6 min and rinsed and stained in hematoxylin for 30 s. The sections were then dehydrated in gradient alcohol and sealed in neutral resins. VEGF expression was assessed by semiquantitative IHC based on staining intensity and density, the staining intensity was scored as 0 (negative), 1 (weak), 2 (moderate), and 3 (strong), while the staining density was scored on the basis of the percentage of positively stained cells: 0 (0%), 1 (1-25%), 2 (26-50%), 3 (51-75%), and 4 (76-100%). The total VEGF IHC score was calculated by multiplying the intensity score by the density score. Microvessel density (MVD) was calculated according to the method developed by Weidner et al.

[3] = tested on: HUVEC cells with high expression of VEGFR; test: Cell competitive binding (cell affinity) assay by FACS, HUVEC; assay type: cell-based, human; conditions: QR-KLU 0, 2.5, 5, 10, 20 μM pre-incubated 30 min at 37 °C, then 10 μM FAM-QR for 4 h
Method: (§2) We then performed cell competitive binding assay to evaluate the affinity of the peptide conjugate to endothelial cell HUVEC with high expression of VEGFR [29]. FAM-labeled VEGF125−136 peptide QR was cultured with HUVEC cells for 4 h and then cellular penetration ability was tested by FACS. […] To further confirm our result, we then used HT29 cells to repeat this assay as HT29 cells are reported with low expression of VEGFR [29].
(§3) Fig. 2 The cell affinity of QR-KLU with different cell lines. Cell penetration of peptide QR-KLU with HUVEC cells (A) and HT29 cells (B). The cells were respectively treated with PBS, 10 μM FAM-QR + 0 μM QR-KLU, 10 μM FAM-QR + 2.5 μM QR-KLU, 10 μM FAM-QR + 5 μM QR-KLU, 10 μM FAM-QR + 10 μM QR-KLU, 10 μM FAM-QR + 20 μM QR-KLU. C The median fluorescence of HUVEC and HT29 cells treated with different peptides as mention in Fig. 2A, B.
(§4) The affinity ability of peptide QR-KLU to endothelial cells was determined by fluorescence-activated cell sorting (FACS) analysis. Briefly, the HUVEC cells were incubated on a 24-well plate for 24 h in growth medium. Then peptide QR-KLU in medium with different concentrations (0 μM, 2.5 μM, 5 μM, 10 μM, 20 μM) were respectively incubated with HUVEC cells for 30 min at 37 °C. Next, carboxy-fluorescein (FAM)-labelled-QR peptide (10 μM) were added to each well for 4 h at 37 °C. […] FACS was performed and the results were analyzed using FlowJo.

[4] = tested on: HUVEC cells; test: Annexin V-FITC/PI cell apoptosis assay, HUVEC; assay type: cell-based, human; conditions: 10 μM, 24 h, Annexin V-PI FACS
Method: The improved proapoptotic activity of QR-KLU was further confirmed by Annexin V-PI staining through FACS. Viable cells, early apoptotic cells, necrotic cells, late apoptotic cells were represented by Q4, Q3, Q2 and Q1 respectively. […] Besides, QR-KLU induced cell apoptosis in a dose-dependent manner. […] The percentage of apoptotic cells in KLU peptide at 20 μM were about 25% in both Huh7 cells and HUVEC cells.
as §1
Supplementary Figure S2. Cell apoptosis of HUVEC induced by different peptides. HUVEC cells were treated with PBS, 80μM QR, 20μM KLU, 5μM QR-KLU, 10μM QR-KLU for 24 hours before detection by FACS.

[5] = Therapeutic safety in VX2 tumor-bearing rabbits (organ H&E, serum biochemistry)
Method: Twenty-four VX2 tumor-burdened rabbits were evenly divided into four groups. After fasting for 12 h, the rabbits were anesthetized by intravenous injection of pentobarbital sodium solution (2 wt.%, 30 mg/kg). The rabbit’s right femoral artery was dissected and a 4-F Cobra catheter (Cook, Inc., Bloomington, Indiana) was inserted into the celiac artery, hepatic arteriography was then performed under the guidance of digital subtraction angiography (DSA), and a 2.7-F coaxial microcatheter (Terumo, Tokyo, Japan) was super-selectively inserted into the tumor donor branch subsequently. The emulsion of drugs and lipiodol were slowly injected into the tumor-feeding artery through the above microcatheter at a speed of 0.5 mL/min. […] After obtaining all DSA images, the sheaths and catheters were removed.
Seven days after treatment, the liver tumors, hearts, lungs, kidneys and spleens were harvested and fixed in 4% phosphate-buffered paraformaldehyde, the specimens were embedded in paraffin blocks and cut into 5‐μm‐thick sections. Following the manufacturer’s guidelines, the sections were stained with haematoxylin and eosin (H&E) for the evaluation of organ toxicity and tumor necrosis, Ki-67 staining and transfer-mediated dUTP nick end labeling (TUNEL) technique were used to detect tumor proliferation and apoptosis, respectively.
Blood samples were collected before treatment and at 1, 3, 7 days after treatment. The blood samples were stood at room temperature for 30 min, and the serum was obtained by centrifugation (room temperature, 8000 rpm, 10 min) for assessment of alanine aminotransferase (ALT), aspartate aminotransferase (AST), total bilirubin (TBIL) and creatinine (CREA). The assays were performed using the commercially ready-made kits following the manufacturers’ instructions.

[6] = tested on: HT29 cells with low expression of VEGFR; test: Cell competitive binding (cell affinity) assay by FACS, HT29; assay type: cell-based, human; conditions: QR-KLU 0-20 μM with 10 μM FAM-QR
Method: as §2, §3, §4

[7] = tested on: HUVEC cells; test: Wound-healing assay of HUVEC cells; assay type: cell-based, human; conditions: 10 μM, 24 h
Method: Wound-healing assay was performed according to the protocols reported by Liang et al.. Briefly, HUVEC cells were plated into 12-well plate and grown to create a confluent monolayer. The monolayer was grazed in a straight line to create a “scratch” with a pipette tip. Markings were created close to the scratch to be used as reference points. Then cells were treated with different peptides for 24 h at 37 °C. Images were collected with a Leica DFC480 camera on a phase-contrast microscope equipped with a 10 × objective at room temperature. The free area of the wound was measured by image software. Supplementary Figure S1. Wound healing assay to detect the cell migration influenced by different peptides.

[8] = 7 days after treatment, versus NS group

## CC(=O)N[C@@H](CCC(N)=O)C(=O)N[C@@H](CCCCN)C(=O)N[C@@H](CCCNC(=N)N)C(=O)N[C@@H](CCCCN)C(=O)N[C@@H](CCCNC(=N)N)C(=O)N[C@@H](CCCCN)C(=O)N[C@@H](CCCCN)C(=O)N[C@@H](CO)C(=O)N[C@@H](CCCNC(=N)N)C(=O)N[C@@H](Cc1ccc(O)cc1)C(=O)N[C@@H](CCCCN)C(=O)N[C@@H](CO)C(=O)NCCCCCC(=O)N[C@@H](CCCCN)C(=O)N[C@@H](CC(C)C)C(=O)NC(C)(C)C(=O)N[C@@H](CCCCN)C(=O)N[C@@H](CC(C)C)C(=O)NC(C)(C)C(=O)N[C@@H](CCCCN)C(=O)N[C@@H](CCCCN)C(=O)N[C@@H](CC(C)C)C(=O)NC(C)(C)C(=O)N[C@@H](CCCCN)C(=O)N[C@@H](CC(C)C)C(=O)NC(C)(C)C(=O)N[C@@H](CCCCN)C(N)=O [QR-KLU] (Ac-QKRKRKKSRYKS[Ahx]KL[Aib]KL[Aib]KKL[Aib]KL[Aib]K-NH2; N-terminus and C-terminus assumed)
[1]
  apoptosis rate in Huh 7 cells: over 60%
[2]; 0.5 mL lipiodol emulsion into tumor-feeding artery, DOX 2 mg/kg, KLU 4 mg/kg, QR-KLU 4 mg/kg, MR images, 24 rabbits evenly in four groups, mean ± SD
  mean tumor volume at 7 days after TAE procedure: 1008.5 ± 370.7 mm^3
[2]; 7 days after TAE, DOX 2 mg/kg, KLU 4 mg/kg, QR-KLU 4 mg/kg in lipiodol, NS group 276.4%
  tumor growth rate (V7/V0 × 100%): significantly lower than that of the NS group; also recorded: significantly lower than the other three groups
[2]; 7 days after embolization, IHC intensity × density score, compared with NS group
  VEGF IHC score in tumor: significantly reduced the expression of CD31 and VEGF
[2]; 7 days after embolization, mean of three ×200 fields, compared with NS group
  microvessel density (MVD), CD31 IHC: reduce the MVD in the tumor
[2]; [8]
  mean proportion of apoptotic cells in tumor (TUNEL): significantly higher than that in NS group; also recorded: highest
  mean proportion of proliferating cells in tumor (Ki67): significantly lower than that in NS group; also recorded: lowest
[2]; baseline, MR images, V = a*b^2/2, VX2 rabbits, 24 rabbits evenly in four groups, mean ± SD
  mean tumor volume one day before TAE procedure: 899.7 ± 394.0 mm^3
[3]
  effect of QR-KLU on cell penetration of FAM-labeled peptide QR in HUVEC: decreased cell penetration ability
[4]
  apoptosis rate in HUVEC cells: over 40%
[5]; 7 days after TACE, 4 mg/kg in lipiodol
  H&E staining of hearts, lungs, kidneys and spleens: no apparent tissue injury
[5]; before and 1, 3, 7 days after treatment, 4 mg/kg in lipiodol via TAE
  liver and renal toxicity (ALT, AST, TBIL, CREA in serum): no significant liver or renal toxicity
[6]
  effect of QR-KLU on cell penetration of FAM-labeled peptide QR in HT29: could not obviously affect cell penetration ability
[7]
  cell migration of HUVEC (wound epithelial gap): the wound epithelial gap was unchanged or even bigger
